Values after ≈ are worked out from the molar mass of the structure shown.
Test system: Pasteurella multocida
Test: minimum inhibitory concentration (MIC)
Experimental: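 Broth microdilution MIC (Sensititre BOPO7F bovine plate, CLSI methods) of 19 antimicrobials against field isolates of P. multocida, M. haemolytica, H. somni (deep nasopharyngeal swabs) and E. coli, Enterococcus spp. (rectal swabs) from weaned dairy heifers. Incubation 16-24 h at 35 C. MIC is the lowest concentration preventing visible growth. Values with <= or > lie at the tested range limits. Trimethoprim-sulfamethoxazole is given as the trimethoprim component of a 1:19 mixture.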

CCN1CCN(c2cc3c(cc2F)c(=O)c(C(=O)O)cn3C2CC2)CC1 [Enrofloxacin]
Details | minimum inhibitory concentration [µg/mL]
isolate (source animal id): 10 | 1 (≈ 2.78 µM)
isolate (source animal id): 11 | 1 (≈ 2.78 µM)
isolate (source animal id): 12 | 1 (≈ 2.78 µM)
isolate (source animal id): 19 | 1 (≈ 2.78 µM)
isolate (source animal id): 23 | 1 (≈ 2.78 µM)
isolate (source animal id): 26 | 2 (≈ 5.56 µM)
isolate (source animal id): 98 | 2 (≈ 5.56 µM)
isolate (source animal id): 104 | 0.5 (≈ 1.39 µM)
isolate (source animal id): 115 | ≤ 0.12
isolate (source animal id): 117 | > 2
isolate (source animal id): 118 | 2 (≈ 5.56 µM)
isolate (source animal id): 121 | ≤ 0.12
isolate (source animal id): 124 | 1 (≈ 2.78 µM)
isolate (source animal id): 125 | 1 (≈ 2.78 µM)
isolate (source animal id): 128 | ≤ 0.12
isolate (source animal id): 131 | > 2
isolate (source animal id): 135 | > 2
isolate (source animal id): 136 | ≤ 0.12
isolate (source animal id): 140 | 1 (≈ 2.78 µM)
isolate (source animal id): 144 | 1 (≈ 2.78 µM)
isolate (source animal id): 146 | 1 (≈ 2.78 µM)
isolate (source animal id): 150 | ≤ 0.12
isolate (source animal id): 151 | ≤ 0.12
isolate (source animal id): 153 | 1 (≈ 2.78 µM)
isolate (source animal id): 155 | 0.5 (≈ 1.39 µM)
isolate (source animal id): 157 | 2 (≈ 5.56 µM)
isolate (source animal id): 160 | ≤ 0.12
isolate (source animal id): 164 | ≤ 0.12
isolate (source animal id): 165 | ≤ 0.12
isolate (source animal id): 167 | ≤ 0.12
isolate (source animal id): 168 | 2 (≈ 5.56 µM)
isolate (source animal id): 169 | ≤ 0.12
isolate (source animal id): 170 | ≤ 0.12
isolate (source animal id): 171 | ≤ 0.12
isolate (source animal id): 172 | ≤ 0.12
isolate (source animal id): 173 | 2 (≈ 5.56 µM)
isolate (source animal id): 174 | ≤ 0.12
isolate (source animal id): 175 | ≤ 0.12
isolate (source animal id): 176 | ≤ 0.12
isolate (source animal id): 177 | ≤ 0.12
isolate (source animal id): 178 | ≤ 0.12
isolate (source animal id): 179 | ≤ 0.12
isolate (source animal id): 182 | ≤ 0.12
isolate (source animal id): 192 | ≤ 0.12
isolate (source animal id): 193 | ≤ 0.12
isolate (source animal id): 195 | ≤ 0.12
isolate (source animal id): 196 | ≤ 0.12
isolate (source animal id): 197 | ≤ 0.12
isolate (source animal id): 198 | 2 (≈ 5.56 µM)
isolate (source animal id): 199 | ≤ 0.12
isolate (source animal id): 200 | ≤ 0.12
isolate (source animal id): 201 | ≤ 0.12
isolate (source animal id): 203 | ≤ 0.12
isolate (source animal id): 204 | ≤ 0.12
isolate (source animal id): 205 | 2 (≈ 5.56 µM)
isolate (source animal id): 206 | ≤ 0.12
isolate (source animal id): 207 | ≤ 0.12
isolate (source animal id): 208 | ≤ 0.12
isolate (source animal id): 209 | ≤ 0.12
isolate (source animal id): 210 | 2 (≈ 5.56 µM)
isolate (source animal id): 213 | ≤ 0.12
isolate (source animal id): 216 | ≤ 0.12
isolate (source animal id): 223 | > 2
isolate (source animal id): 227 | ≤ 0.12
isolate (source animal id): 229 | 2 (≈ 5.56 µM)
isolate (source animal id): 233 | 2 (≈ 5.56 µM)
isolate (source animal id): 234 | 2 (≈ 5.56 µM)
isolate (source animal id): 237 | > 2
isolate (source animal id): 241 | > 2
isolate (source animal id): 245 | > 2
isolate (source animal id): 247 | 0.5 (≈ 1.39 µM)
isolate (source animal id): 250 | 1 (≈ 2.78 µM)
isolate (source animal id): 254 | 2 (≈ 5.56 µM)
isolate (source animal id): 255 | 2 (≈ 5.56 µM)
isolate (source animal id): 258 | ≤ 0.12
isolate (source animal id): 261 | 2 (≈ 5.56 µM)
isolate (source animal id): 262 | 1 (≈ 2.78 µM)
isolate (source animal id): 269 | ≤ 0.12
isolate (source animal id): 270 | 2 (≈ 5.56 µM)
isolate (source animal id): 274 | > 2
isolate (source animal id): 275 | 2 (≈ 5.56 µM)
isolate (source animal id): 276 | > 2
isolate (source animal id): 277 | ≤ 0.12
isolate (source animal id): 278 | 2 (≈ 5.56 µM)
isolate (source animal id): 279 | 0.5 (≈ 1.39 µM)
isolate (source animal id): 280 | 0.5 (≈ 1.39 µM)
isolate (source animal id): 284 | 2 (≈ 5.56 µM)
isolate (source animal id): 285 | 1 (≈ 2.78 µM)
isolate (source animal id): 287 | 2 (≈ 5.56 µM)
isolate (source animal id): 290 | ≤ 0.12
isolate (source animal id): 294 | ≤ 0.12
isolate (source animal id): 295 | ≤ 0.12
isolate (source animal id): 296 | 1 (≈ 2.78 µM)
isolate (source animal id): 307 | ≤ 0.12
isolate (source animal id): 310 | ≤ 0.12
isolate (source animal id): 311 | ≤ 0.12
isolate (source animal id): 312 | 1 (≈ 2.78 µM)
isolate (source animal id): 313 | 1 (≈ 2.78 µM)
isolate (source animal id): 315 | 1 (≈ 2.78 µM)
isolate (source animal id): 316 | 1 (≈ 2.78 µM)

CS(=O)(=O)c1ccc([C@@H](O)[C@@H](CF)NC(=O)C(Cl)Cl)cc1 [Florfenicol]
Details | minimum inhibitory concentration [µg/mL]
isolate (source animal id): 10 | 8 (≈ 22.3 µM)
isolate (source animal id): 11 | 8 (≈ 22.3 µM)
isolate (source animal id): 12 | 8 (≈ 22.3 µM)
isolate (source animal id): 19 | 8 (≈ 22.3 µM)
isolate (source animal id): 23 | 8 (≈ 22.3 µM)
isolate (source animal id): 26 | 8 (≈ 22.3 µM)
isolate (source animal id): 98 | 8 (≈ 22.3 µM)
isolate (source animal id): 104 | 0.5 (≈ 1.4 µM)
isolate (source animal id): 115 | 8 (≈ 22.3 µM)
isolate (source animal id): 117 | 0.5 (≈ 1.4 µM)
isolate (source animal id): 118 | 8 (≈ 22.3 µM)
isolate (source animal id): 121 | 8 (≈ 22.3 µM)
isolate (source animal id): 124 | 1 (≈ 2.79 µM)
isolate (source animal id): 125 | 8 (≈ 22.3 µM)
isolate (source animal id): 128 | 8 (≈ 22.3 µM)
isolate (source animal id): 131 | > 8
isolate (source animal id): 135 | > 8
isolate (source animal id): 136 | 8 (≈ 22.3 µM)
isolate (source animal id): 140 | 0.5 (≈ 1.4 µM)
isolate (source animal id): 144 | 8 (≈ 22.3 µM)
isolate (source animal id): 146 | 8 (≈ 22.3 µM)
isolate (source animal id): 150 | 8 (≈ 22.3 µM)
isolate (source animal id): 151 | 8 (≈ 22.3 µM)
isolate (source animal id): 153 | 8 (≈ 22.3 µM)
isolate (source animal id): 155 | 0.5 (≈ 1.4 µM)
isolate (source animal id): 157 | 8 (≈ 22.3 µM)
isolate (source animal id): 160 | 8 (≈ 22.3 µM)
isolate (source animal id): 164 | 8 (≈ 22.3 µM)
isolate (source animal id): 165 | 8 (≈ 22.3 µM)
isolate (source animal id): 167 | 0.5 (≈ 1.4 µM)
isolate (source animal id): 168 | 1 (≈ 2.79 µM)
isolate (source animal id): 169 | 0.5 (≈ 1.4 µM)
isolate (source animal id): 170 | > 8
isolate (source animal id): 171 | 0.5 (≈ 1.4 µM)
isolate (source animal id): 172 | 0.5 (≈ 1.4 µM)
isolate (source animal id): 173 | 1 (≈ 2.79 µM)
isolate (source animal id): 174 | 0.5 (≈ 1.4 µM)
isolate (source animal id): 175 | 0.5 (≈ 1.4 µM)
isolate (source animal id): 176 | 0.5 (≈ 1.4 µM)
isolate (source animal id): 177 | 0.5 (≈ 1.4 µM)
isolate (source animal id): 178 | 0.5 (≈ 1.4 µM)
isolate (source animal id): 179 | 0.5 (≈ 1.4 µM)
isolate (source animal id): 182 | 0.5 (≈ 1.4 µM)
isolate (source animal id): 192 | 0.5 (≈ 1.4 µM)
isolate (source animal id): 193 | 0.5 (≈ 1.4 µM)
isolate (source animal id): 195 | 0.5 (≈ 1.4 µM)
isolate (source animal id): 196 | 0.5 (≈ 1.4 µM)
isolate (source animal id): 197 | 0.5 (≈ 1.4 µM)
isolate (source animal id): 198 | 1 (≈ 2.79 µM)
isolate (source animal id): 199 | 0.5 (≈ 1.4 µM)
isolate (source animal id): 200 | 0.5 (≈ 1.4 µM)
isolate (source animal id): 201 | 0.5 (≈ 1.4 µM)
isolate (source animal id): 203 | 0.5 (≈ 1.4 µM)
isolate (source animal id): 204 | 0.5 (≈ 1.4 µM)
isolate (source animal id): 205 | 1 (≈ 2.79 µM)
isolate (source animal id): 206 | 0.5 (≈ 1.4 µM)
isolate (source animal id): 207 | 0.5 (≈ 1.4 µM)
isolate (source animal id): 208 | 0.5 (≈ 1.4 µM)
isolate (source animal id): 209 | 0.5 (≈ 1.4 µM)
isolate (source animal id): 210 | 1 (≈ 2.79 µM)
isolate (source animal id): 213 | 0.5 (≈ 1.4 µM)
isolate (source animal id): 216 | 0.5 (≈ 1.4 µM)
isolate (source animal id): 223 | 1 (≈ 2.79 µM)
isolate (source animal id): 227 | 0.5 (≈ 1.4 µM)
isolate (source animal id): 229 | 8 (≈ 22.3 µM)
isolate (source animal id): 233 | 0.5 (≈ 1.4 µM)
isolate (source animal id): 234 | 8 (≈ 22.3 µM)
isolate (source animal id): 237 | 8 (≈ 22.3 µM)
isolate (source animal id): 241 | 8 (≈ 22.3 µM)
isolate (source animal id): 245 | 0.5 (≈ 1.4 µM)
isolate (source animal id): 247 | 0.5 (≈ 1.4 µM)
isolate (source animal id): 250 | 8 (≈ 22.3 µM)
isolate (source animal id): 254 | > 8
isolate (source animal id): 255 | 4 (≈ 11.2 µM)
isolate (source animal id): 258 | 0.5 (≈ 1.4 µM)
isolate (source animal id): 261 | 8 (≈ 22.3 µM)
isolate (source animal id): 262 | > 8
isolate (source animal id): 269 | 0.5 (≈ 1.4 µM)
isolate (source animal id): 270 | 8 (≈ 22.3 µM)
isolate (source animal id): 274 | > 8
isolate (source animal id): 275 | > 8
isolate (source animal id): 276 | 0.5 (≈ 1.4 µM)
isolate (source animal id): 277 | 0.5 (≈ 1.4 µM)
isolate (source animal id): 278 | > 8
isolate (source animal id): 279 | 1 (≈ 2.79 µM)
isolate (source animal id): 280 | 0.5 (≈ 1.4 µM)
isolate (source animal id): 284 | 8 (≈ 22.3 µM)
isolate (source animal id): 285 | > 8
isolate (source animal id): 287 | > 8
isolate (source animal id): 290 | > 8
isolate (source animal id): 294 | > 8
isolate (source animal id): 295 | 8 (≈ 22.3 µM)
isolate (source animal id): 296 | 0.5 (≈ 1.4 µM)
isolate (source animal id): 307 | > 8
isolate (source animal id): 310 | > 8
isolate (source animal id): 311 | 8 (≈ 22.3 µM)
isolate (source animal id): 312 | 8 (≈ 22.3 µM)
isolate (source animal id): 313 | > 8
isolate (source animal id): 315 | > 8
isolate (source animal id): 316 | > 8

Reference: the supplement of paper PMC8612539
